Patent US12552846B2, “Modified BCL9 mimetic peptides” (Sapience Therapeutics, Inc., priority 2019, dated 2026)
pEC50: −log10 of the molar value. Square brackets hold non-standard residues; d marks the D form. Peptide text beside a SMILES is read from it. * marks the point of attachment. dOrn = NCCC[C@@H](N)C(=O)O; Octanoyl = CCCCCCCC(=O)*

These molecules were tested on HL60 promyelocytic leukemia cells (assay: Cytotoxicity assay in HL60 cells (Annexin V FITC / PI flow cytometry)). Conditions: 48 hours.
Format: cell-based
Method: We examined the cytotoxicity of peptides BCL-26 and BCL-27 using an assay in HL60 promyelocytic leukemia cells. HL60 PML suspension cells were set at a density of 3.5×10^3 cells/well in 150 μL of RPMI+1.5% fetal bovine serum (FBS) in a 96 well dish. BCL-26 or BCL-27, reconstituted at a concentration of 10 mg/mL in 20 mM His, pH 7.5, was added to each well at a volume of 50 μL to a final concentration range of 0-80 μM. Cells were incubated with peptide for 48 hours at 37° C. Cell viability was quantified by flow cytometry using abcam Annexin V FITC apoptosis detection kit. Briefly, cells were washed with PBS and resuspended in 1× assay buffer containing Annexin V FITC and propidium iodide (PI). Annexin V detects apoptotic cells, and PI stains dead cells. After staining, apoptotic cells show green fluorescence, dead cells show red and green fluorescence, and live cells show little or no fluorescence. Cells were selected for analysis based on forward scatter (FSC) vs. side scatter (SSC), and analyzed by BD Accuri C6 Plus flow cytometer to detect Annexin V-FITC binding (Ex=488 nm; Em=530 nm) using FITC signal detector and PI staining by the phycoerythrnn emission signal detector. Percentage of Annexin V^low and PI^low were quantified and presented as % Viability.
We examined the cytotoxicity of additional retro inverso and mixed chirality BCL9 mimetic peptides in HL60 cells using the assay described above.
For `CC(C)C[C@@H](NC(=O)[C@@H](C)NC(=O)[C@@H](C)NC(=O)[C@@H](CC(C)C)NC(=O)[C@@H](CCC(N)=O)NC(=O)[C@@H](C)NC(=O)[C@@H](C)NC(=O)[C@@H](CC(C)C)NC(=O)[C@@H](Cc1c[nH]c2ccccc12)NC(=O)[C@@H](Cc1c[nH]c2ccccc12)NC(=O)CNC(=O)[C@@H](CCCNC(=N)N)NC(=O)CNC(=O)[C@@H](CC(=O)O)NC(=O)[C@@H](CO)NC(=O)[C@H]1CCCN1)C(=O)N[C@H](C)C(=O)N[C@H](CCC(N)=O)C(=O)N[C@H](CC(C)C)C(=O)N[C@H](C)C(=O)N[C@H](CCCCN)C(=O)N[C@H](CC(C)C)C(=O)N[C@@H](C(=O)N1CCC[C@@H]1C(=O)N[C@@H](C(=O)O)C(C)C)[C@H](C)O` [BCL-134, reference compound] (H-[dP][dS][dD]G[dR]G[dW][dW][dL][dA][dA][dQ][dL][dA][dA][dL][dA][dQ][dL][dA][dK][dL][dT][dP][dV]-OH; N-terminus and C-terminus assumed), the cytotoxic activity was “Lack of cytotoxic activity”. For `CCCCCCCC(=O)N[C@H](CC(C)C)C(=O)N[C@@H](C(=O)N[C@H](CCCNC(=N)N)C(=O)N[C@H](CCC(N)=O)C(=O)N[C@H](CC(C)C)C(=O)N[C@H](C)C(=O)N[C@H](CCCNC(=N)N)C(=O)N[C@H](CC(C)C)C(=O)N[C@H](C)C(=O)N[C@H](CCC(N)=O)C(=O)N[C@H](CC(C)C)C(=O)N[C@H](C)C(=O)N[C@H](CCCCN)C(=O)N[C@H](CC(C)C)C(=O)N[C@@H](C(=O)N1CCC[C@@H]1C(=O)N[C@@H](C(=O)O)C(C)C)[C@H](C)O)C(C)C` [BCL-138] (Octanoyl-[dL][dV][dR][dQ][dL][dA][dR][dL][dA][dQ][dL][dA][dK][dL][dT][dP][dV]-OH; C-terminus assumed), the cytotoxic activity was “Lack of cytotoxic activity”.

Same assay, conditions: 48 hours, 0-80 μM, % Viability (Annexin V low, PI low)
In the case of `CC(C)C[C@@H](NC(=O)[C@@H](Cc1c[nH]c2ccccc12)NC(=O)[C@@H](N)Cc1c[nH]c2ccccc12)C(=O)N[C@H](C)C(=O)N[C@H](CCCNC(=N)N)C(=O)N[C@H](CCC(N)=O)C(=O)N[C@H](CC(C)C)C(=O)N[C@H](CCC(=O)O)C(=O)N[C@H](CCCNC(=N)N)C(=O)N[C@H](CC(C)C)C(=O)N[C@H](CCCNC(=N)N)C(=O)N[C@H](CCCNC(=N)N)C(=O)N[C@H](CC(C)C)C(=O)N[C@H](C)C(=O)N[C@H](CCCCN)C(=O)N[C@H](CC(C)C)C(=O)N[C@@H](C(=O)N1CCC[C@@H]1C(=O)N[C@@H](C(=O)O)C(C)C)[C@H](C)O` [BCL-97] (H-W[dW][dL][dA][dR][dQ][dL][dE][dR][dL][dR][dR][dL][dA][dK][dL][dT][dP][dV]-OH; N-terminus and C-terminus assumed), the pEC50 was greater than 5.70. `CC(C)C[C@@H](NC(=O)[C@@H](CCCNC(=N)N)NC(=O)[C@@H](C)NC(=O)[C@@H](CC(C)C)NC(=O)[C@@H](CCC(N)=O)NC(=O)[C@@H](CCCNC(=N)N)NC(=O)[C@H](NC(=O)[C@@H](CC(C)C)NC(=O)[C@@H](Cc1c[nH]c2ccccc12)NC(=O)[C@H](CCCNC(=N)N)NC(=O)[C@H](N)Cc1ccccc1)C(C)C)C(=O)N[C@H](C)C(=O)N[C@H](CCC(N)=O)C(=O)N[C@H](CC(C)C)C(=O)N[C@H](C)C(=O)N[C@H](CCCCN)C(=O)N[C@H](CC(C)C)C(=O)N[C@@H](C(=O)N1CCC[C@@H]1C(=O)N[C@@H](C(=O)O)C(C)C)[C@H](C)O` [BCL-130] (H-[dF]R[dW][dL][dV][dR][dQ][dL][dA][dR][dL][dA][dQ][dL][dA][dK][dL][dT][dP][dV]-OH; N-terminus and C-terminus assumed) was tested, and the pEC50 was greater than 5.70. `CC(C)C[C@@H](NC(=O)[C@@H](Cc1c[nH]c2ccccc12)NC(=O)[C@H](N)Cc1c[nH]c2ccccc12)C(=O)N[C@H](C)C(=O)N[C@H](CCCNC(=N)N)C(=O)N[C@H](CCC(N)=O)C(=O)N[C@H](CC(C)C)C(=O)N[C@H](CCC(=O)O)C(=O)N[C@H](CCCNC(=N)N)C(=O)N[C@H](CC(C)C)C(=O)N[C@H](C)C(=O)N[C@H](CCCCN)C(=O)N[C@H](CC(C)C)C(=O)N[C@H](C)C(=O)N[C@H](CCCCN)C(=O)N[C@H](CC(C)C)C(=O)N[C@@H](C(=O)N1CCC[C@@H]1C(=O)N[C@@H](C(=O)O)C(C)C)[C@H](C)O` [BCL-90] (H-[dW][dW][dL][dA][dR][dQ][dL][dE][dR][dL][dA][dK][dL][dA][dK][dL][dT][dP][dV]-OH; N-terminus and C-terminus assumed) was tested, and the pEC50 was 5.00 to 5.70. Work on `CC(C)C[C@@H](NC(=O)[C@@H](CCCNC(=N)N)NC(=O)[C@@H](C)NC(=O)[C@@H](CC(C)C)NC(=O)[C@@H](CCC(N)=O)NC(=O)[C@@H](CCCNC(=N)N)NC(=O)[C@@H](CCC(=O)O)NC(=O)[C@@H](CC(C)C)NC(=O)[C@@H](Cc1c[nH]c2ccccc12)NC(=O)[C@H](N)Cc1c[nH]c2ccccc12)C(=O)N[C@H](C)C(=O)N[C@H](CCC(N)=O)C(=O)N[C@H](CC(C)C)C(=O)N[C@H](C)C(=O)N[C@H](CCCCN)C(=O)N[C@H](CC(C)C)C(=O)N[C@@H](C(=O)N1CCC[C@@H]1C(=O)N[C@@H](C(=O)O)C(C)C)[C@H](C)O` [BCL-83] (H-[dW][dW][dL][dE][dR][dQ][dL][dA][dR][dL][dA][dQ][dL][dA][dK][dL][dT][dP][dV]-OH; N-terminus and C-terminus assumed) yielded a pEC50 of 5.00 to 5.70. With `CC(C)C[C@@H](NC(=O)[C@@H](CCCN)NC(=O)[C@@H](C)NC(=O)[C@@H](CC(C)C)NC(=O)[C@@H](CCC(N)=O)NC(=O)[C@@H](CCCN)NC(=O)[C@@H](C)NC(=O)[C@@H](CC(C)C)NC(=O)[C@@H](Cc1c[nH]c2ccccc12)NC(=O)[C@@H](Cc1c[nH]c2ccccc12)NC(=O)CNC(=O)[C@@H](CCCNC(=N)N)NC(=O)CNC(=O)[C@@H](CC(=O)O)NC(=O)[C@@H](CO)NC(=O)[C@H]1CCCN1)C(=O)N[C@H](C)C(=O)N[C@H](CCC(N)=O)C(=O)N[C@H](CC(C)C)C(=O)N[C@H](C)C(=O)N[C@H](CCCN)C(=O)N[C@H](CC(C)C)C(=O)N[C@@H](C(=O)N1CCC[C@@H]1C(=O)N[C@@H](C(=O)O)C(C)C)[C@H](C)O` [BCL-137] (H-[dP][dS][dD]G[dR]G[dW][dW][dL][dA][dOrn][dQ][dL][dA][dOrn][dL][dA][dQ][dL][dA][dOrn][dL][dT][dP][dV]-OH; N-terminus and C-terminus assumed) the pEC50 was greater than 5.70. For `CCCCCCCC(=O)N1CCC[C@@H]1C(=O)N[C@H](CO)C(=O)N[C@H](CC(=O)O)C(=O)NCC(=O)N[C@H](CCCNC(=N)N)C(=O)NCC(=O)N[C@H](Cc1c[nH]c2ccccc12)C(=O)N[C@H](Cc1c[nH]c2ccccc12)C(=O)N[C@H](CC(C)C)C(=O)N[C@H](C)C(=O)N[C@H](CCCNC(=N)N)C(=O)N[C@H](CCC(N)=O)C(=O)N[C@H](CC(C)C)C(=O)N[C@H](C)C(=O)N[C@H](CCCNC(=N)N)C(=O)N[C@H](CC(C)C)C(=O)N[C@H](C)C(=O)N[C@H](CCC(N)=O)C(=O)N[C@H](CC(C)C)C(=O)N[C@H](C)C(=O)N[C@H](CCCCN)C(=O)N[C@H](CC(C)C)C(=O)N[C@@H](C(=O)N1CCC[C@@H]1C(=O)N[C@@H](C(=O)O)C(C)C)[C@H](C)O` [BCL-135] (Octanoyl-[dP][dS][dD]G[dR]G[dW][dW][dL][dA][dR][dQ][dL][dA][dR][dL][dA][dQ][dL][dA][dK][dL][dT][dP][dV]-OH; C-terminus assumed), the pEC50 was 5.00 to 5.70. `CC(C)C[C@@H](NC(=O)[C@@H](C)NC(=O)[C@@H](C)NC(=O)[C@@H](CC(C)C)NC(=O)[C@@H](CCC(N)=O)NC(=O)[C@@H](C)NC(=O)[C@@H](C)NC(=O)[C@@H](CC(C)C)NC(=O)[C@@H](Cc1c[nH]c2ccccc12)NC(=O)[C@@H](Cc1c[nH]c2ccccc12)NC(=O)CNC(=O)[C@@H](CCCNC(=N)N)NC(=O)CNC(=O)[C@@H](CC(=O)O)NC(=O)[C@@H](CO)NC(=O)[C@H]1CCCN1)C(=O)N[C@H](C)C(=O)N[C@H](CCC(N)=O)C(=O)N[C@H](CC(C)C)C(=O)N[C@H](C)C(=O)N[C@H](CCCCN)C(=O)N[C@H](CC(C)C)C(=O)N[C@@H](C(=O)N1CCC[C@@H]1C(=O)N[C@@H](C(=O)O)C(C)C)[C@H](C)O` [BCL-134, reference compound] (H-[dP][dS][dD]G[dR]G[dW][dW][dL][dA][dA][dQ][dL][dA][dA][dL][dA][dQ][dL][dA][dK][dL][dT][dP][dV]-OH; N-terminus and C-terminus assumed) gave a pEC50 of less than 4.10. Work on `CCCCCCCC(=O)N[C@H](Cc1c[nH]c2ccccc12)C(=O)N[C@H](Cc1c[nH]c2ccccc12)C(=O)N[C@H](CC(C)C)C(=O)N[C@@H](C(=O)N[C@H](CCCNC(=N)N)C(=O)N[C@H](CCC(N)=O)C(=O)N[C@H](CC(C)C)C(=O)N[C@H](C)C(=O)N[C@H](CCCNC(=N)N)C(=O)N[C@H](CC(C)C)C(=O)N[C@H](C)C(=O)N[C@H](CCC(N)=O)C(=O)N[C@H](CC(C)C)C(=O)N[C@H](C)C(=O)N[C@H](CCCCN)C(=O)N[C@H](CC(C)C)C(=O)N[C@@H](C(=O)N1CCC[C@@H]1C(=O)N[C@@H](C(=O)O)C(C)C)[C@H](C)O)C(C)C` [BCL-91b] (Octanoyl-[dW][dW][dL][dV][dR][dQ][dL][dA][dR][dL][dA][dQ][dL][dA][dK][dL][dT][dP][dV]-OH; C-terminus assumed) yielded a pEC50 greater than 5.70. Molecule `CCCCCCCC(=O)N[C@H](CC(C)C)C(=O)N[C@@H](C(=O)N[C@H](CCCNC(=N)N)C(=O)N[C@H](CCC(N)=O)C(=O)N[C@H](CC(C)C)C(=O)N[C@H](C)C(=O)N[C@H](CCCNC(=N)N)C(=O)N[C@H](CC(C)C)C(=O)N[C@H](C)C(=O)N[C@H](CCC(N)=O)C(=O)N[C@H](CC(C)C)C(=O)N[C@H](C)C(=O)N[C@H](CCCCN)C(=O)N[C@H](CC(C)C)C(=O)N[C@@H](C(=O)N1CCC[C@@H]1C(=O)N[C@@H](C(=O)O)C(C)C)[C@H](C)O)C(C)C` [BCL-138] (Octanoyl-[dL][dV][dR][dQ][dL][dA][dR][dL][dA][dQ][dL][dA][dK][dL][dT][dP][dV]-OH; C-terminus assumed) has a pEC50 of less than 4.10. Molecule `CC(C)C[C@@H](NC(=O)[C@@H](Cc1c[nH]c2ccccc12)NC(=O)[C@H](Cc1c[nH]c2ccccc12)NC(=O)[C@H](N)Cc1ccccc1)C(=O)N[C@H](C)C(=O)N[C@H](CCCNC(=N)N)C(=O)N[C@H](CCC(N)=O)C(=O)N[C@H](CC(C)C)C(=O)N[C@H](C)C(=O)N[C@H](CCCNC(=N)N)C(=O)N[C@H](CC(C)C)C(=O)N[C@H](C)C(=O)N[C@H](CCC(N)=O)C(=O)N[C@H](CC(C)C)C(=O)N[C@H](C)C(=O)N[C@H](CCCCN)C(=O)N[C@H](CC(C)C)C(=O)N[C@@H](C(=O)N1CCC[C@@H]1C(=O)N[C@@H](C(=O)O)C(C)C)[C@H](C)O` [BCL-101] (H-[dF]W[dW][dL][dA][dR][dQ][dL][dA][dR][dL][dA][dQ][dL][dA][dK][dL][dT][dP][dV]-OH; N-terminus and C-terminus assumed) has a pEC50 greater than 5.70.
